From article PMC2911657 (The Journal of Cell Biology, 2010)
Entries after “also recorded” stand apart in the source; their conditions may differ. Like-named read-outs stand apart in the source and are kept apart here. Blank lines part the entries; values can stand above or below the compound they belong to.

Legend:
[1] = molecular target: human AURORA B1–344–INCENP835–903 complex (Homo sapiens, UniProt Q96GD4); experiment: In vitro kinase assay on AURORA B–INCENP complex, substrate histone H3; assay type: biochemical
Chain of human AURORA B1–344–INCENP835–903 complex (Q96GD4 whole entry): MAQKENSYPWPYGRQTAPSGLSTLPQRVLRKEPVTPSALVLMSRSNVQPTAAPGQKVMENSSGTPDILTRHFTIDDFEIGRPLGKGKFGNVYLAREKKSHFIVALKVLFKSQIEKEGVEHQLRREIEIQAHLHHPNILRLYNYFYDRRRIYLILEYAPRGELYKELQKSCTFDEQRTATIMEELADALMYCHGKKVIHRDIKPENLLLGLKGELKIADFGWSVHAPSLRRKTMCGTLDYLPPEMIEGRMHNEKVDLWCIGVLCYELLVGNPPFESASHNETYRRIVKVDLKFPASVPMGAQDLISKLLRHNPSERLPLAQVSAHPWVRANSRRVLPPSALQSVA
Chain of human AURORA B1–344–INCENP835–903 complex (Q9NQS7 835-903 partner limits assumed): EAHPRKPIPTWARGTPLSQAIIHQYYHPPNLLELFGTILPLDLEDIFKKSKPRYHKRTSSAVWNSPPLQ

MPS1 [2] = molecular target: T1, MPS1 (Homo sapiens, UniProt P33981); experiment: In vitro kinase assay on MPS1; assay type: biochemical; conditions: for MPS1 inhibition in vitro: 1 µM
T1 sequence (P33981 1-857): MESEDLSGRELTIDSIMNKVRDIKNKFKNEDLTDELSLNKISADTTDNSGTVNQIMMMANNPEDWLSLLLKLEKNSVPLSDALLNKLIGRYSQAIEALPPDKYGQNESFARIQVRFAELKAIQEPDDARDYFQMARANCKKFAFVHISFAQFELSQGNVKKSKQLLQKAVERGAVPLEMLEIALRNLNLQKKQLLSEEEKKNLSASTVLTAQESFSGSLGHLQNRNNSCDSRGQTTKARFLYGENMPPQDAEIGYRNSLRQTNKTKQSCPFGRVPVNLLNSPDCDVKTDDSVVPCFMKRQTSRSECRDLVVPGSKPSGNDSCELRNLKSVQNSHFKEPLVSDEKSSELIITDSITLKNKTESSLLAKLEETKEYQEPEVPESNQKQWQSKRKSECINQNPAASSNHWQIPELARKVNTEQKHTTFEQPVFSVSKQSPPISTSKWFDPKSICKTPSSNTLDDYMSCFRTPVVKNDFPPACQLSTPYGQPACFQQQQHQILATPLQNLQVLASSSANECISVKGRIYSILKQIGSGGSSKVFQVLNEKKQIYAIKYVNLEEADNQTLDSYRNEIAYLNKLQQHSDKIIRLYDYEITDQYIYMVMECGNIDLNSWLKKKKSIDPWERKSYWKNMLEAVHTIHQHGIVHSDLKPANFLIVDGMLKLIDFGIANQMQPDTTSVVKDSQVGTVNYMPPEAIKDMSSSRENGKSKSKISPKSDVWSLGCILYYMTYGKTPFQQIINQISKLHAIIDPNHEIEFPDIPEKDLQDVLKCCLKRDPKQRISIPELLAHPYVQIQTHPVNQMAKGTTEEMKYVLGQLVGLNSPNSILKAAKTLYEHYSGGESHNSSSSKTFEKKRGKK

HeLa cells [3] = experiment: Spindle checkpoint: duration of mitotic arrest, time-lapse video microscopy; assay type: cell-based, human
HeLa cells [4] = experiment: Cytokinesis, time-lapse experiment; assay type: cell-based, human
[5] = system: P-S10-H3 (AURORA B substrate); experiment: P-S10-H3 levels by Western blotting in mitotic HeLa cell lysates; assay type: cell-based, human
HeLa cells [6] = experiment: Chromosome congression / alignment, immunofluorescence; assay type: cell-based, human; conditions: 100 µM
BUB1 = experiment: In vitro kinase assay on BUB1; assay type: biochemical, human
[7] = system: P-S7–CENP-A (AURORA B substrate); experiment: Kinetochore P-S7–CENP-A levels, immunofluorescence; assay type: cell-based, human
MPS1 [8] = molecular target: T1, MPS1; experiment: Kinetochore localization of MPS1, immunofluorescence; assay type: cell-based; conditions: 0.5 µM; nocodazole
MAD2 = conditions: 100 nM hesperadin, ref Yang et al., 2009, cited from earlier work
[9] = system: ROD, ZWILCH, ZW10, SPINDLY, MAD1; experiment: Kinetochore localization of RZZ, SPINDLY and MAD1, immunofluorescence; assay type: cell-based, human
PRP4 = conditions: 1 µM
CDK1–CYCLIN B = conditions: 1 µM
AURORA B = conditions: HeLa cells
HeLa cells [10] = conditions: cold treatment
HASPIN = conditions: 1 µM
TAO1 = conditions: 1 µM
HeLa cells [11] = system: HeLa cells
PLK1 = conditions: 1 µM
HeLa cells [12] = conditions: concentrations up to 10 µM; MG132
NEK2A = conditions: 1 µM
MAPKs = conditions: 1 µM; ref D’Alise et al., 2008; cited from earlier work

Compound: N#CC(=C(/N)Sc1ccccc1N)/C(C#N)=C(/N)Sc1ccccc1N [U0126]
effect on duration of the spindle checkpoint (HeLa cells [3]; 10 µM): does not affect the duration of the spindle checkpoint

Compound: Cc1ccc2c(c1)C(=O)C1(O)CCN(c3ccccc3)C1=N2 (stereo not drawn) [blebbistatin]
ability of mitotic HeLa cells to maintain a nocodazole-mediated arrest (HeLa cells [3]; unpublished data): did not significantly affect
effect on chromosome alignment (HeLa cells [6]): did not cause any evident effects; also recorded: does not cause evident perturbations

Compound: COC[C@H]1OC(=O)c2coc3c2[C@@]1(C)C1=C(C3=O)[C@@H]2CCC(=O)[C@@]2(C)C[C@H]1OC(C)=O [wortmannin]
effect on duration of the spindle checkpoint (HeLa cells [3]; 100 nM): does not affect the duration of the spindle checkpoint

Further lines, with some results ahead:

IC50 for AURORA B compared with IC50 for MPS1 [1]: significantly lower
IC50 (MPS1 [2]): ~2500 nM
Compound: Oc1c2ccccc2c2c3c(cccc13)N=N2 [SP600125]

MPS1 inhibition in vitro (MPS1 [2]): did not inhibit
Compound: COc1cc2c(Nc3ccc(NC(=O)c4ccccc4)cc3)ncnc2cc1OCCCN1CCOCC1 [ZM447439]
concentration range in which cytokinesis is impaired (HeLa cells [4]; time-lapse): 0.1 to 0.5 µM
concentration inhibiting P-S10-H3 ([5]; Western blotting): ≤ 500 nM

MPS1 kinetochore staining (MPS1 [8]): prevented kinetochore localization
Compound: CCS(=O)(=O)Nc1ccc2c(c1)/C(=C(/Nc1ccc(CN3CCCCC3)cc1)c1ccccc1)C(=O)N2 [hesperadin]
BUB1 inhibition in vitro (BUB1; 1 µM hesperadin): failed to observe significant MPS1 (and BUB1) inhibition
P-S7–CENP-A antigen ([7]; 100 nM): invisible
cells with impaired cytokinesis (HeLa cells [4]; 5–10 nM range): 100%
MAD2 at kinetochores (MAD2; high nocodazole (3.2 µM)): retained on kinetochores
MAD2 at kinetochores (MAD2; low nocodazole concentrations): absent from kinetochores
MPS1 inhibition in vitro (MPS1 [2]): failed to observe significant MPS1 (and BUB1) inhibition
MAD1 and RZZ complex at kinetochores ([9]; 0.5–1.0 µM, high concentrations of nocodazole, unpublished data): lost from kinetochores

effect on PRP4 kinase activity (PRP4): failed to alter the activity
effect on CDK1–CYCLIN B kinase activity (CDK1–CYCLIN B): failed to alter the activity
effect on BUB1 kinase activity (BUB1; 1 µM): failed to alter the activity
effect on HASPIN kinase activity (HASPIN): failed to alter the activity
effect on TAO1 kinase activity (TAO1): failed to alter the activity
effect on PLK1 kinase activity (PLK1): failed to alter the activity
effect on NEK2A kinase activity (NEK2A): failed to alter the activity
Compound: c1nc2nc(Nc3ccc(N4CCOCC4)cc3)nc(NC3CCCCC3)c2[nH]1 [reversine]
kinetochore levels of P–CENP-A ([7]; up to 5 µM, nocodazole): not influenced; also recorded: unaltered
kinetochore localization of AURORA B (AURORA B): unaffected
effect on cytokinesis (HeLa cells [4]; 0.5 µM): does not significantly inhibit
effect on cytokinesis (HeLa cells [4]; 1 µM): unaffected
spindle checkpoint in the presence of Taxol, STLC or BI2536 (HeLa cells [3]; 500 nM Taxol, 10 µM STLC or BI2536): caused an override of the checkpoint
inhibition of kinetochore fiber formation (HeLa cells [10]): did not inhibit
effect on centrosome duplication (HeLa cells [11]): failed to see an effect
inhibition of spindle bipolarization (HeLa cells [12]): did not inhibit
inhibition of MAPKs (MAPKs): not significantly inhibited
effect on P-S10-H3 ([5]; 0.5 µM): no effects
kinetochore localization of ROD, ZWILCH, ZW10, SPINDLY and MAD1 ([9]; 0.5 µM reversine, 330 nM nocodazole, MG132): largely evicted from kinetochores
MAD1 localization to kinetochores ([9]; nocodazole 0.33 or 3.3 µM): failed to localize to kinetochores
